Legend:
Assay in all cases: KINOMEscan
Type in all cases: binding
Settings in all cases: read-out: % Ctrl
GRK1 = target: T1, GRK1 (Homo sapiens, UniProt Q15835)
T1 construct: purchased DiscoveRx KINOMEscan
How it was run: (§1)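 Competition binding panel of 442 non-mutant kinases: test compound at 5 and 10 μM competed with an active-site-directed ligand for 1 h with shaking. Bound kinase was eluted with 0.5 μM ligand and quantified by qPCR; %Ctrl = (compound − positive control)/(DMSO − positive control) × 100, lower meaning tighter binding.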

PRKCE = target: T2, PRKCE (Homo sapiens, UniProt Q02156)
T2 construct: purchased DiscoveRx KINOMEscan
How it was run: as §1

MAP3K2 = target: T3, MAP3K2 (Homo sapiens, UniProt Q9Y2U5)
T3 construct: purchased DiscoveRx KINOMEscan
How it was run: as §1

CDKL2 = target: T4, CDKL2 (Homo sapiens, UniProt Q92772)
T4 construct: purchased DiscoveRx KINOMEscan
How it was run: as §1

p38-beta = target: T5, p38-beta (Homo sapiens, UniProt Q15759)
T5 construct: purchased DiscoveRx KINOMEscan
How it was run: as §1

SLK = target: T6, SLK (Homo sapiens, UniProt Q9H2G2)
T6 construct: purchased DiscoveRx KINOMEscan
How it was run: as §1

FLT1 = target: T7, FLT1 (Homo sapiens, UniProt P17948)
T7 construct: purchased DiscoveRx KINOMEscan
How it was run: as §1

PFPK5(P.falciparum) = target: T8, PFPK5(P.falciparum) (Plasmodium falciparum, UniProt P61075)
T8 construct: purchased DiscoveRx KINOMEscan
How it was run: as §1

EPHB2 = target: T9, EPHB2 (Homo sapiens, UniProt P29323)
T9 construct: purchased DiscoveRx KINOMEscan
How it was run: as §1

ABL1-nonphosphorylated = target: T10, ABL1-nonphosphorylated (Homo sapiens, UniProt P00519)
T10 construct: purchased DiscoveRx KINOMEscan
How it was run: as §1

CDK4-cyclinD3 = target: T11, CDK4-cyclinD3 (Homo sapiens, UniProt P11802)
T11 construct: purchased DiscoveRx KINOMEscan
How it was run: as §1

TAOK2 = target: T12, TAOK2 (Homo sapiens, UniProt Q9UL54)
T12 construct: purchased DiscoveRx KINOMEscan
How it was run: as §1

[1] = target: T13, RSK3(Kin.Dom.2-C-terminal) (Homo sapiens, UniProt Q15349)
T13 construct: RSK3(Kin.Dom.2-C-terminal); purchased DiscoveRx KINOMEscan
How it was run: as §1

MARK4 = target: T14, MARK4 (Homo sapiens, UniProt Q96L34)
T14 construct: purchased DiscoveRx KINOMEscan
How it was run: as §1

TNNI3K = target: T15, TNNI3K (Homo sapiens, UniProt Q59H18)
T15 construct: purchased DiscoveRx KINOMEscan
How it was run: as §1

[2] = target: T16, TYK2(JH1domain-catalytic) (Homo sapiens, UniProt P29597)
T16 construct: TYK2(JH1domain-catalytic); purchased DiscoveRx KINOMEscan
How it was run: as §1

ITK = target: T17, ITK (Homo sapiens, UniProt Q08881)
T17 construct: purchased DiscoveRx KINOMEscan
How it was run: as §1

MST1 = target: T18, MST1 (Homo sapiens, UniProt Q13043)
T18 construct: purchased DiscoveRx KINOMEscan
How it was run: as §1

HIPK1 = target: T19, HIPK1 (Homo sapiens, UniProt Q86Z02)
T19 construct: purchased DiscoveRx KINOMEscan
How it was run: as §1

TTK = target: T20, TTK (Homo sapiens, UniProt P33981)
T20 construct: purchased DiscoveRx KINOMEscan
How it was run: as §1

[3] = target: RPS6KA5(Kin.Dom.2-C-terminal) (Homo sapiens, UniProt O75582)
How it was run: as §1

VEGFR2 = target: T21, VEGFR2 (Homo sapiens, UniProt P35968)
T21 construct: purchased DiscoveRx KINOMEscan
How it was run: as §1

TNK1 = target: T22, TNK1 (Homo sapiens, UniProt Q13470)
T22 construct: purchased DiscoveRx KINOMEscan
How it was run: as §1

IRAK3 = target: T23, IRAK3 (Homo sapiens, UniProt Q9Y616)
T23 construct: purchased DiscoveRx KINOMEscan
How it was run: as §1

STK16 = target: T24, STK16 (Homo sapiens, UniProt O75716)
T24 construct: purchased DiscoveRx KINOMEscan
How it was run: as §1

AMPK-alpha1 = target: T25, AMPK-alpha1 (Homo sapiens, UniProt Q13131)
T25 construct: purchased DiscoveRx KINOMEscan
How it was run: as §1

PIP5K1A = target: T26, PIP5K1A (Homo sapiens, UniProt Q99755)
T26 construct: purchased DiscoveRx KINOMEscan
How it was run: as §1

[4] = target: T27, JAK1(JH1domain-catalytic) (Homo sapiens, UniProt P23458)
T27 construct: JAK1(JH1domain-catalytic); purchased DiscoveRx KINOMEscan
How it was run: as §1

[5] = target: T28, ABL1(H396P)-nonphosphorylated (Homo sapiens, UniProt P00519, H396P)
T28 construct: purchased DiscoveRx KINOMEscan

T19 sequence (Q86Z02 whole entry): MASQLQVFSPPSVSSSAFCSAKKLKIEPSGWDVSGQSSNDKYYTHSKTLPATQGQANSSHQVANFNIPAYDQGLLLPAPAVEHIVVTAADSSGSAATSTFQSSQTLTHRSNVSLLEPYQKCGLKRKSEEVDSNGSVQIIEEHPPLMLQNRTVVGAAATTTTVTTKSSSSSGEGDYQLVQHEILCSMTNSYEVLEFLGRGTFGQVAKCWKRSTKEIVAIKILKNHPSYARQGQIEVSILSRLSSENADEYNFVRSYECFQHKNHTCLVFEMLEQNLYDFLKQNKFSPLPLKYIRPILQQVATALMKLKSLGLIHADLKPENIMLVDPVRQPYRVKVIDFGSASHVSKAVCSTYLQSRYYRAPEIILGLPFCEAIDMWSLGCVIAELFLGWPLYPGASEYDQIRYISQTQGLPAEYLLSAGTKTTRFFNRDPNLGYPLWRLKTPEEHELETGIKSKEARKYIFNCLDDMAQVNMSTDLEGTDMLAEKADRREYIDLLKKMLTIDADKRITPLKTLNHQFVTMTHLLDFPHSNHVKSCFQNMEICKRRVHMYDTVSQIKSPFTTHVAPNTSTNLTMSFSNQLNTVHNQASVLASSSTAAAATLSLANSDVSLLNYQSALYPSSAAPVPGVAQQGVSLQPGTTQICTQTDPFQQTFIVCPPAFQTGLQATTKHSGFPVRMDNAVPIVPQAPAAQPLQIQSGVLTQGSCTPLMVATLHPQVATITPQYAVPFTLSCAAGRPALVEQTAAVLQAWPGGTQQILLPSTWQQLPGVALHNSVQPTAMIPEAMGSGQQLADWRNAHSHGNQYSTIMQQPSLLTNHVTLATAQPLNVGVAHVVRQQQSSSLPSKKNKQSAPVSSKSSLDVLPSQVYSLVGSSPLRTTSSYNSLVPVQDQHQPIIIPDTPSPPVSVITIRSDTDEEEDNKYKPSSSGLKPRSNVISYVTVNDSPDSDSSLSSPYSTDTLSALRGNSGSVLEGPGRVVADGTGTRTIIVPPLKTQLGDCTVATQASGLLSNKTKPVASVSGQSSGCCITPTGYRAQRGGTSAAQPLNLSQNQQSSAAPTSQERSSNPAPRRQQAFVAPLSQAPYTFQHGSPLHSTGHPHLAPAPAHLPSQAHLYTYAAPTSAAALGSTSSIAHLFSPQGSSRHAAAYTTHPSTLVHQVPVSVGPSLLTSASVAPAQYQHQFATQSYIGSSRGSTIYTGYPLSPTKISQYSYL
T13 sequence (Q15349 389-733 limits assumed): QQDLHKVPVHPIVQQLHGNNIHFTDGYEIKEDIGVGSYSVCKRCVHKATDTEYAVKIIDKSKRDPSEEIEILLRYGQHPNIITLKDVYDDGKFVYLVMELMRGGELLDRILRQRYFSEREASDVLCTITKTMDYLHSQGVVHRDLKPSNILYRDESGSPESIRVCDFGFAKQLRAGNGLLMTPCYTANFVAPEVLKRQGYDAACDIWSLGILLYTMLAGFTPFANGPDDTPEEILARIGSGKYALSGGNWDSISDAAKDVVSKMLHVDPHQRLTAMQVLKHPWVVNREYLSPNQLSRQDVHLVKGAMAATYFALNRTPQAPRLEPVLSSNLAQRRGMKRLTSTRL
T12 sequence (Q9UL54 whole entry): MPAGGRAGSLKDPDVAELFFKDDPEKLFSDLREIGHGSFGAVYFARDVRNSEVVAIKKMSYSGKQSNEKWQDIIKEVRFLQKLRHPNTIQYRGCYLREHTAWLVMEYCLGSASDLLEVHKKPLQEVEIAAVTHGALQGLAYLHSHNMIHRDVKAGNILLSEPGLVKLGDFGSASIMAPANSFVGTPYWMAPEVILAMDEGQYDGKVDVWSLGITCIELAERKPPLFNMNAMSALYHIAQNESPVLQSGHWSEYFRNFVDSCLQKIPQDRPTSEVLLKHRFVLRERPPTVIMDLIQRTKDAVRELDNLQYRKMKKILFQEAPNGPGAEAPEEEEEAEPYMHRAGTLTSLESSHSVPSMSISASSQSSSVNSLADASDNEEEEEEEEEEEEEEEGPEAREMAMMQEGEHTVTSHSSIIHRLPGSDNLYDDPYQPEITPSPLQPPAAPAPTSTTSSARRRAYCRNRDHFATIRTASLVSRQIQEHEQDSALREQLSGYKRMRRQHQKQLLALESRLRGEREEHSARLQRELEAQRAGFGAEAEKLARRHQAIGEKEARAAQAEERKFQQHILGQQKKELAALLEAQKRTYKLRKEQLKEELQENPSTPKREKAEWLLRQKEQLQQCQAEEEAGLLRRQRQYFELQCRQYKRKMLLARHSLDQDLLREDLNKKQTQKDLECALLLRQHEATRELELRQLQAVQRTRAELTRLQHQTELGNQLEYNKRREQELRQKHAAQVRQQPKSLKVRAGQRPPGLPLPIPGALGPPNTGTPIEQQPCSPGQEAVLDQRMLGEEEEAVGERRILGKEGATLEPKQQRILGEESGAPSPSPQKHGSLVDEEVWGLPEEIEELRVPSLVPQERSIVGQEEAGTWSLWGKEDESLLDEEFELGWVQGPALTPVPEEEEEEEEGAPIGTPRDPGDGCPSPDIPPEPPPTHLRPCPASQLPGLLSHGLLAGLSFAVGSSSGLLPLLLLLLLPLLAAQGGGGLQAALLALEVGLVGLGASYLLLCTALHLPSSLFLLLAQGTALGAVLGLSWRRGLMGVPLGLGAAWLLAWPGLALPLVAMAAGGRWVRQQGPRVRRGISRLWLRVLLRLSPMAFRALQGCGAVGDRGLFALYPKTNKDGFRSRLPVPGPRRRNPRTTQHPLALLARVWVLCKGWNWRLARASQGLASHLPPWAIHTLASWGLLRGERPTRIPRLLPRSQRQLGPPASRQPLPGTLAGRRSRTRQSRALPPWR
T14 sequence (Q96L34 whole entry): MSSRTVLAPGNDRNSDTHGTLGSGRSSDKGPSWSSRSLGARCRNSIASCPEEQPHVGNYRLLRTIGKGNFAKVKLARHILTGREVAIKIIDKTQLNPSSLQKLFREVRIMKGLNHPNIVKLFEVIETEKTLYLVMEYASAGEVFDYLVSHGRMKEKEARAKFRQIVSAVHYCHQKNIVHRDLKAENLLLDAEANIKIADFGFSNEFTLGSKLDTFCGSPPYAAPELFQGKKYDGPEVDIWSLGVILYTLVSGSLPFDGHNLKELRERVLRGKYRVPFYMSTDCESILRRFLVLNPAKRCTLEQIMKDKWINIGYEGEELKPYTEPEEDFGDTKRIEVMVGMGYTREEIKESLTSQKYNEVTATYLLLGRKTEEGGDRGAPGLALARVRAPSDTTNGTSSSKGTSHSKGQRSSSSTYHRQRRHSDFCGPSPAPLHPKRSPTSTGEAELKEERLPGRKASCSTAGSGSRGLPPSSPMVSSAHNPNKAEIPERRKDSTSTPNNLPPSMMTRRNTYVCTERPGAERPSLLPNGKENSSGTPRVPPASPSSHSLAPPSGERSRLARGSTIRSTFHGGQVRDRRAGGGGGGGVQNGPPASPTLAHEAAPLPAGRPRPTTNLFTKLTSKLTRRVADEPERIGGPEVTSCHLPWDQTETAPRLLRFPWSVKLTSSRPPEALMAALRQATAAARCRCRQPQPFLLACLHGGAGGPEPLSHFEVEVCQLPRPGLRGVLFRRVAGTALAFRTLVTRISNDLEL
T8 sequence (P61075 whole entry): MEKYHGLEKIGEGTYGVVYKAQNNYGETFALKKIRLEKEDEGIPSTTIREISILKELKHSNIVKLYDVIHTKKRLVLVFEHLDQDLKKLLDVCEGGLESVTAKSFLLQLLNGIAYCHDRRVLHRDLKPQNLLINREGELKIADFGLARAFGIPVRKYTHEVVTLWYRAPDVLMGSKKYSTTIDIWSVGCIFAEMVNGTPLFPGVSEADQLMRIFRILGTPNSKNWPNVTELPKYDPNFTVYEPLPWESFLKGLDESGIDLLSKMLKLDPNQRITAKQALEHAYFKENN
T24 sequence (O75716 whole entry): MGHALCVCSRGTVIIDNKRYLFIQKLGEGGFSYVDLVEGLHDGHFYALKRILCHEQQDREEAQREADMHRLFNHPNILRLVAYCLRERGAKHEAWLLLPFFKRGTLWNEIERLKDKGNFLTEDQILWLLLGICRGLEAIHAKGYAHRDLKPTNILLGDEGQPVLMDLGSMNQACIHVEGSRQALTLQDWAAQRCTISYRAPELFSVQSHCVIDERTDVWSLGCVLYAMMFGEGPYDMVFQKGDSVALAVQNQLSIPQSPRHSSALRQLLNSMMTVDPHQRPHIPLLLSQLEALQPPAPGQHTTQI
T22 sequence (Q13470 whole entry): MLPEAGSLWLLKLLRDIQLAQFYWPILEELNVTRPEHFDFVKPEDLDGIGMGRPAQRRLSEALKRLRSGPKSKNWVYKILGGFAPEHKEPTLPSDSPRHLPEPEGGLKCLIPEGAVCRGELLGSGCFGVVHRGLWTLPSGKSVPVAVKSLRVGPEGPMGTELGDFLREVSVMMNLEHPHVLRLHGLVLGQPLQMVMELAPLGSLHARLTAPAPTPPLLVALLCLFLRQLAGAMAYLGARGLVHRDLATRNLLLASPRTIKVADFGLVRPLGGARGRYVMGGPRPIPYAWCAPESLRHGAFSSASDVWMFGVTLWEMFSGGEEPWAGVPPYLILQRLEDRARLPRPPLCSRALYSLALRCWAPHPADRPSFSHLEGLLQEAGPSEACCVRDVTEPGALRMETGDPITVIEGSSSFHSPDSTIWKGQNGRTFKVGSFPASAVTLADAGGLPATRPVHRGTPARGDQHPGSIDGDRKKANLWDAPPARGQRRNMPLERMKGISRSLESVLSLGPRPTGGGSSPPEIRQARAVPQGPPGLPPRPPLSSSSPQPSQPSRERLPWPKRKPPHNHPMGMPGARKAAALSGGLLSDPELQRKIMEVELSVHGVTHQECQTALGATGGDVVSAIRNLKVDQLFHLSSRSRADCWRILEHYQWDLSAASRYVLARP

`Cc1ccc(C2=Nc3cccnc3S(=O)(=O)c3ccccc32)cc1` [TBPT, 6-(p-tolyl)benzo[f] pyrido[2,3-b][1,4] thiazepine 11,11-dioxide] gave a remaining binding at 5 µM (GRK1; 5 μM) of 100%, a remaining binding at 10 µM (GRK1; 10 μM) of 100% and a remaining binding at 5 µM (PRKCE; 5 μM) of 100%. It also gave a remaining binding at 10 µM (PRKCE; 10 μM) of 100%, a remaining binding at 5 µM (MAP3K2; 5 μM) of 82% and a remaining binding at 10 µM (MAP3K2; 10 μM) of 100%. For the same molecule, the remaining binding at 5 µM (CDKL2; 5 μM) was 95%, the remaining binding at 10 µM (CDKL2; 10 μM) was 100% and the remaining binding at 5 µM (p38-beta; 5 μM) was 100%. The remaining binding at 10 µM (p38-beta; 10 μM) was 76%, the remaining binding at 5 µM (SLK; 5 μM) was 100% and the remaining binding at 10 µM (SLK; 10 μM) was 86%. The remaining binding at 5 µM (FLT1; 5 μM) was 100%, the remaining binding at 10 µM (FLT1; 10 μM) was 98% and the remaining binding at 5 µM (PFPK5(P.falciparum); 5 μM) was 97%. The remaining binding at 10 µM (PFPK5(P.falciparum); 10 μM) was 97%, the remaining binding at 5 µM (EPHB2; 5 μM) was 91% and the remaining binding at 10 µM (EPHB2; 10 μM) was 100%. It also gave a remaining binding at 5 µM (ABL1-nonphosphorylated; 5 μM) of 89%, a remaining binding at 10 µM (ABL1-nonphosphorylated; 10 μM) of 100% and a remaining binding at 5 µM (CDK4-cyclinD3; 5 μM) of 100%. For the same molecule, the remaining binding at 10 µM (CDK4-cyclinD3; 10 μM) was 90%, the remaining binding at 5 µM (TAOK2; 5 μM) was 90% and the remaining binding at 10 µM (TAOK2; 10 μM) was 67%. For the same molecule, the remaining binding at 5 µM ([1]; 5 μM) was 100%, the remaining binding at 10 µM ([1]; 10 μM) was 100% and the remaining binding at 5 µM (MARK4; 5 μM) was 81%. The remaining binding at 10 µM (MARK4; 10 μM) was 100%, the remaining binding at 5 µM (TNNI3K; 5 μM) was 100% and the remaining binding at 10 µM (TNNI3K; 10 μM) was 89%. For the same molecule, the remaining binding at 5 µM ([2]; 5 μM) was 69%, the remaining binding at 10 µM ([2]; 10 μM) was 100% and the remaining binding at 5 µM (ITK; 5 μM) was 100%. For the same molecule, the remaining binding at 10 µM (ITK; 10 μM) was 90%, the remaining binding at 5 µM (MST1; 5 μM) was 93% and the remaining binding at 10 µM (MST1; 10 μM) was 100%. For the same molecule, the remaining binding at 5 µM (HIPK1; 5 μM) was 71%, the remaining binding at 10 µM (HIPK1; 10 μM) was 63% and the remaining binding at 5 µM (TTK; 5 μM) was 100%. It also gave a remaining binding at 10 µM (TTK; 10 μM) of 100%, a remaining binding at 5 µM ([3]; 5 μM) of 100% and a remaining binding at 10 µM ([3]; 10 μM) of 93%. The remaining binding at 5 µM (VEGFR2; 5 μM) was 95%, the remaining binding at 10 µM (VEGFR2; 10 μM) was 84% and the remaining binding at 5 µM (TNK1; 5 μM) was 100%. For the same molecule, the remaining binding at 10 µM (TNK1; 10 μM) was 97%, the remaining binding at 5 µM (IRAK3; 5 μM) was 92% and the remaining binding at 10 µM (IRAK3; 10 μM) was 82%. It also gave a remaining binding at 5 µM (STK16; 5 μM) of 99%, a remaining binding at 10 µM (STK16; 10 μM) of 91% and a remaining binding at 5 µM (AMPK-alpha1; 5 μM) of 100%. For the same molecule, the remaining binding at 10 µM (AMPK-alpha1; 10 μM) was 100%, the remaining binding at 5 µM (PIP5K1A; 5 μM) was 98% and the remaining binding at 10 µM (PIP5K1A; 10 μM) was 100%. The remaining binding at 5 µM ([4]; 5 μM) was 95%, the remaining binding at 10 µM ([4]; 10 μM) was 89% and the remaining binding at 5 µM ([5]; 5 μM) was 62%. For the same molecule, the remaining binding at 10 µM ([5]; 10 μM) was 77%.

Source: article PMC4823954, “From fighting depression to conquering tumors: a novel tricyclic thiazepine compound as a tubulin polymerization inhibitor” (Cell Death & Disease, 2016)
